Assay results as given in ChEMBL document CHEMBL3734707, “Synthesis and biological evaluation of pyrazolopyrimidines as potential antibacterial agents” (2015).
Active and inactive are the calls of the source. The rule behind the calls is not given here.

Experiments:
[1] = biological target: T1, 4-diphosphocytidyl-2-C-methyl-D-erythritol kinase (Burkholderia thailandensis (strain ATCC 700388 / DSM 13276 / CIP106301 / E264)) (UniProt Q2T1B6); assay: Binding affinity to Burkholderia thailandensis E264 recombinant IspE (1 to 293 residues) assessed as maximum spectral signal at 250 uM by STD-NMR analysis
T1 sequence (whole entry): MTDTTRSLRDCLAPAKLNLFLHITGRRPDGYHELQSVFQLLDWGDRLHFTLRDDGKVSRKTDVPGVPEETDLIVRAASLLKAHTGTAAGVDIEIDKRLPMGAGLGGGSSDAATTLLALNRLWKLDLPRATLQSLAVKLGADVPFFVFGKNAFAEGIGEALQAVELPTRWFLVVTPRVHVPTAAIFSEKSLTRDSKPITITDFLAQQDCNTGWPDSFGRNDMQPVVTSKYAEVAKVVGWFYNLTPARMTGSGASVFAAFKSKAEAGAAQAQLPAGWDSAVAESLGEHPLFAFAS

[2] = biological target: T1, 4-diphosphocytidyl-2-C-methyl-D-erythritol kinase (Burkholderia thailandensis (strain ATCC 700388 / DSM 13276 / CIP106301 / E264)); assay: Binding affinity to Burkholderia thailandensis E264 recombinant IspE (1 to 293 residues) at 250 uM by STD-NMR analysis in presence of ADP and CDP
[3] = biological target: T1, 4-diphosphocytidyl-2-C-methyl-D-erythritol kinase (Burkholderia thailandensis (strain ATCC 700388 / DSM 13276 / CIP106301 / E264)); assay: Binding affinity to Burkholderia thailandensis E264 recombinant IspE (1 to 293 residues) at 250 uM by STD-NMR analysis in presence of ADP
Pseudomonas aeruginosa [4] = assay: Antibacterial activity against Pseudomonas aeruginosa ATCC 27853 at 1 mM after 24 to 48 hrs by Kirby-Bauer disc diffusion susceptibility test; assay type: functional; details: read-out: DIZ
Pseudomonas aeruginosa [5] = assay: Antibacterial activity against Pseudomonas aeruginosa ATCC 27853 at 0.5 mM after 24 to 48 hrs by Kirby-Bauer disc diffusion susceptibility test; assay type: functional; details: read-out: DIZ
[6] = test system: Burkholderia thailandensis; assay: Antibacterial activity against Burkholderia thailandensis E264 at 0.5 mM after 24 to 48 hrs by Kirby-Bauer disc diffusion susceptibility test; assay type: functional; details: read-out: DIZ
[7] = test system: Burkholderia thailandensis; assay: Antibacterial activity against Burkholderia thailandensis E264 at 0.1 mM after 24 to 48 hrs by Kirby-Bauer disc diffusion susceptibility test; assay type: functional; details: read-out: DIZ
[8] = test system: Burkholderia thailandensis; assay: Antibacterial activity against Burkholderia thailandensis E264 at 1 mM after 24 to 48 hrs by Kirby-Bauer disc diffusion susceptibility test; assay type: functional; details: read-out: DIZ
Pseudomonas aeruginosa [9] = assay: Antibacterial activity against Pseudomonas aeruginosa ATCC 27853 at 0.1 mM after 24 to 48 hrs by Kirby-Bauer disc diffusion susceptibility test; assay type: functional; details: read-out: DIZ
[10] = biological target: T2, 2-C-methyl-D-erythritol 4-phosphate cytidylyltransferase (Burkholderia thailandensis (strain ATCC 700388 / DSM 13276 / CIP106301 / E264)) (UniProt Q2SWT6); assay: Binding affinity to Burkholderia thailandensis E264 recombinant IspD (1 to 236 residues) assessed as maximum spectral signal at 250 uM by STD-NMR analysis
T2 sequence (whole entry): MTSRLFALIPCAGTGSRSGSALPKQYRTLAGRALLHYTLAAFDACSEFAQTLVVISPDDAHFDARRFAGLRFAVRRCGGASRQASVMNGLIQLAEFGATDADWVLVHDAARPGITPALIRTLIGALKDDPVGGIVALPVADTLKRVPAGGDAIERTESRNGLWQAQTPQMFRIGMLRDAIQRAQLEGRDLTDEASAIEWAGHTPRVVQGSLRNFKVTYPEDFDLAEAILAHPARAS

[11] = biological target: T2, 2-C-methyl-D-erythritol 4-phosphate cytidylyltransferase (Burkholderia thailandensis (strain ATCC 700388 / DSM 13276 / CIP106301 / E264)); assay: Binding affinity to Burkholderia thailandensis E264 recombinant IspD (1 to 236 residues) at 250 uM by STD-NMR analysis in presence of CDP

SMILES | %max [1] [%] | Activity [2] | Activity [3] | zone of inhibition at 1000 µM (Pseudomonas aeruginosa [4]) [mm] | zone of inhibition at 500 µM (Pseudomonas aeruginosa [5]) [mm] | zone of inhibition at 500 µM [6] [mm] | zone of inhibition at 100 µM [7] [mm] | zone of inhibition at 1000 µM [8] [mm] | zone of inhibition at 100 µM (Pseudomonas aeruginosa [9]) [mm] | %max [10] [%] | Activity [11]
Cn1ncc2c(NCCc3ccc(Cl)cc3)ncnc21 | 12 | inactive | Active |  |  |  |  |  |  |  | 
Cn1ncc2c(NCCc3c[nH]c4ccccc34)ncnc21 | 14 | inactive | Active | 0 | 0 | 12 | 0 | 14 | 0 |  | 
CC(C)(C)n1ncc2c(NCc3ccccc3)ncnc21 | 15 | inactive | Active |  |  |  |  |  |  |  | 
Cn1ncc2c(NCCc3ccc(Cl)cc3Cl)ncnc21 | 28 | inactive | Active |  |  |  |  |  |  | 8 | Active
CC(C)(C)n1ncc2c(NCc3ccc(Cl)c(Cl)c3)ncnc21 | 21 | inactive | Active |  |  |  |  |  |  |  | 
Cn1ncc2c(NCCc3cccc(F)c3)ncnc21 | 17 | inactive | Active |  |  |  |  |  |  |  | 
CC(C)(C)n1ncc2c(NCCc3c(Cl)cccc3Cl)ncnc21 | 12 | inactive | Active |  |  |  |  |  |  |  | 
Cn1ncc2c(NCCc3c(F)cccc3Cl)ncnc21 | 14 | inactive | Active |  |  |  |  |  |  | 6 | inactive
NC[C@H]1O[C@H](O[C@H]2[C@H](O)[C@@H](O[C@H]3O[C@H](CO)[C@@H](O)[C@H](N)[C@H]3O)[C@H](N)C[C@@H]2N)[C@H](O)[C@@H](O)[C@@H]1O [KANAMYCIN] |  |  |  | 0 | 0 | 22 | 6 | 30 | 0 |  | 
Cn1ncc2c(NCCc3ccc(F)cc3)ncnc21 | 11 | inactive | Active |  |  |  |  |  |  |  | 
Cn1ncc2c(NCc3ccccc3F)ncnc21 | 14 | inactive | Active |  |  |  |  |  |  |  | 
CC(C)(C)n1ncc2c(NCCO)ncnc21 |  |  |  | 20 | 12 | 8 | 0 | 12 | 0 |  | 
C[C@H](Nc1ncnc2c1cnn2C)c1ccccc1 | 17 | inactive | Active |  |  |  |  |  |  |  | 
Cn1ncc2c(NCc3ccc(Cl)c(Cl)c3)ncnc21 | 24 | inactive | Active |  |  |  |  |  |  | 6 | Active
CC(C)(C)n1ncc2c(NCCc3c(F)cccc3Cl)ncnc21 | 17 | inactive | Active |  |  |  |  |  |  | 10 | inactive
CC(C)(C)n1ncc2c(NCc3ccco3)ncnc21 | 17 | inactive | Active |  |  |  |  |  |  |  | 
Cn1ncc2c(NCc3ccc(Cl)cc3)ncnc21 | 12 | inactive | Active |  |  |  |  |  |  | 6 | Active
CC(C)(C)n1ncc2c(NCc3cccc([N+](=O)[O-])c3)ncnc21 | 21 | inactive | Active |  |  |  |  |  |  |  | 
Cn1ncc2c(NCc3ccc(F)cc3)ncnc21 | 20 | inactive | Active |  |  |  |  |  |  |  | 
Cn1ncc2c(NCCc3ccc(O)cc3)ncnc21 | 16 | inactive | Active |  |  |  |  |  |  | 14 | Active
Cn1ncc2c(NCc3cccc(F)c3)ncnc21 | 24 | inactive | Active |  |  |  |  |  |  |  | 
Cn1ncc2c(NCc3ccccc3)ncnc21 | 13 | inactive | Active |  |  |  |  |  |  |  | 
Cn1ncc2c(NCCc3ccccc3F)ncnc21 | 10 | inactive | Active |  |  |  |  |  |  |  | 
